In article PMC12809571, “Contribution to the Chemotherapy of Human Trypanosomiasis: Design, Synthesis, and Biological Evaluation of Dimeric 2‑Nitroimidazoles against Trypanosoma cruzi Amastigotes and Bloodstream Trypanosoma brucei” (ACS Omega, 2025):
Like-named read-outs stand apart in the source and are kept apart here.

What was measured:
[1] = test system: amastigotes of T. cruzi (Tulahuen C2C4 LacZ strain); assay: Trypanocidal activity against T. cruzi amastigotes (CPRG, infected LLC-MK2); type: cell-based, Trypanosoma cruzi; details: intracellular amastigotes in LLC-MK2, 120 h; for IC50: Trypanosoma cruzi, TULAHUEN, read-out: Activity against Amastigotes of T. cruzi (Tulahuen C2C4lacZ) IC50
Procedure: The antiparasitic activity assays used amastigotes of the Tulahuen C2C4-LacZ strain of T. cruzi. Amastigotes and trypomastigotes were cultured by successive reinfections in LLC-MK2 cell monolayers in DMEM supplemented with 5% FBS and incubated at 37 °C with 5% CO2. Trypomastigotes were collected from the culture supernatant between days 5 and 10 after infection and separated from nonadhered cells by differential centrifugation.
In a flat 96-well plate, a suspension of 1 × 10^4 LLC-MK2 cells (ATCC) in DMEM supplemented with 2% FBS was added. Cells were incubated at 37 °C with 5% CO2 for 4 h to promote adhesion, then washed with PBS to remove nonadherent cells. A suspension containing 1.5 × 10^5 T. cruzi trypomastigote forms of the Tulahuen C2C4 LacZ strain was added to the cells, followed by incubation at 37 °C with 5% CO2 for 20 h to establish infection. Noninternalized parasites were removed with three successive PBS washes, then treatment with serial dilutions (50–0.08 μM) of compounds in triplicate, prediluted in DMEM with 2% FBS. Controls included untreated cells, vehicle (0.2% v/v DMSO), and blank (no parasite added). Benznidazole, in serial dilutions, served as a positive control. After 5 days (120 h), 30 μL of a 0.5 mM CPRG solution in PBS was added along with 0.9% v/v Igepal CA-630. After a 2h incubation, absorbance was measured at 570 nm using a plate reader.

[2] = Cytotoxicity against LLC-MK2 cells (MTT); type: cell-based; details: rhesus monkey
Procedure: (§1) Mammalian lineage cells were used to assess the cytotoxicity of the tested compounds. LLC-MK2, HEK-293, and RAW-264 cells (ATCC) were cultured in Dulbecco’s Modified Eagle’s Medium (DMEM) supplemented with 5% fetal bovine serum (FBS) and incubated at 37 °C in 5% CO2, with passages every 4–5 days. Cells were detached from the monolayer using a solution containing 0.25% w/v trypsin and 0.04% EDTA.
In a flat 96-well plate, a suspension of 1 × 10^4 LLC-MK2 cells (ATCC) in DMEM supplemented with 2% FBS was added. Cells were incubated at 37 °C (5% CO2) for 20 h, then washed with phosphate-buffered saline (PBS) to remove nonadherent cells. Cells were treated with serial dilutions (200–2 μM) of compounds in triplicate, prediluted in DMEM with 2% FBS. Untreated, vehicle (0.2% v/v DMSO), and blank (no cells added) controls were included. After 120 h of incubation, the supernatant was removed, the cell monolayer washed with PBS, and the culture medium refreshed. Then, 20 μL of a 3.0 mM MTT salt solution was added, followed by two additional hours of incubation. The supernatant was removed again, and the MTT formazan crystals were dissolved by adding 120 μL of DMSO per well. After 1.5 h of dark incubation at 37 °C to dissolve the crystals, the absorbance was measured at 570 nm using a plate reader.

[3] = test system: amastigotes of T. cruzi (Tulahuen C2C4 LacZ strain); assay: Trypanocidal activity against T. cruzi amastigotes (CPRG, infected LLC-MK2); type: cell-based, Trypanosoma cruzi
Chagas disease = details: chronic phase of Chagas disease; cited from earlier work
[4] = test system: bloodstream trypomastigotes of T. b. brucei; assay: Trypanocidal activity against T. brucei brucei bloodstream (MTS); type: cell-based, Trypanosoma brucei brucei
Procedure: In a transparent 96-well plate, the parasites were incubated for 48 h at a concentration of 5 × 10^4 parasites per well, for 24 h, a concentration of 10 × 10^5 parasites per well was used in Hirumi’s Modified Iscove’s (HMI-9) medium supplemented with 10% FBS and a final 100 μL/well volume. Treatment was carried out using serial dilutions of the compounds (100–0.02 μM) and fexinidazole as the reference drug, both in triplicate. Triplicates of untreated parasites (live control), parasites treated with DMSO 0.2% v/v (vehicle), and wells without parasites (blank control) served as experimental controls. After incubation, 20 μL of MTS solution (5% PMS) was added, and the sample was incubated for another 2 h. Once the plate was visibly stained–due to the soluble formazan salt produced by the action of viable parasites from the reduction of MTS–the absorbance was measured at 490 nm using a plate reader.

HEK-293 cells = assay: Cytotoxicity against HEK-293 cells (MTT); type: cell-based
Procedure: as §1
In a 96-well transparent plate, a suspension of 1 × 10^4 HEK-293 cells (ATCC) in DMEM medium supplemented with 10% FBS was added. Cells were incubated at 37 °C (5% CO2) for 20 h and then washed with PBS to remove nonadherent cells. The cells were treated with serial dilutions of the hybrids in triplicate (125–0.2 μM), prediluted in DMEM containing 10% FBS. The experiment included untreated controls, vehicle (0.2% v/v DMSO), and a blank (no added cells). […] Then, 20 μL of 3.0 mM MTT saline was added, followed by an additional 1.5 h of incubation. The supernatant was removed, and the MTT formazan crystals were dissolved by adding 120 μL of DMSO per well. After incubating for 1.5 h in the dark at 37 °C, the absorbance was measured at 570 nm using a plate reader.

RAW-264.7 cells = assay: Cytotoxicity against RAW-264.7 cells (MTT); type: cell-based
Procedure: as §1
In a 96-well transparent plate, a suspension of 1 × 10^4 RAW-264.7 cells (ATCC) in Roswell Park Memorial Institute (RPMI) medium supplemented with 10% FBS was added. Cells were incubated at 37 °C (5% CO2) for 20 h, then washed with PBS to remove nonadherent cells. Cells were treated with serial dilutions of the hybrids in triplicate (125–0.2 μM), prediluted in RPMI supplemented with 10% FBS. Controls included untreated samples, vehicle (0.2% v/v DMSO), and blank wells (no cells). […] Then, 20 μL of 3.0 mM MTT saline was added, followed by an additional 1.5 h of incubation. The supernatant was removed again, and the MTT formazan crystals were dissolved by adding 120 μL of DMSO per well. After incubating for 1.5 h in the dark at 37 °C to dissolve the crystals, absorbance was measured at 570 nm using a plate reader.

[5] = Trypanosoma brucei, 48 h, read-out: T. b. brucei 48 h IC50
[6] = Homo sapiens, HEK293, 48 h, read-out: HEK-293 48 h IC50
[7] = Mus musculus, RAW264.7, 48 h, read-out: RAW-264.7 48 h IC50
[8] = Trypanosoma brucei, 48 h; read-out: T. b. brucei 48 h IC50
[9] = Homo sapiens, HEK293, 48 h; read-out: HEK-293 48 h IC50
[10] = Mus musculus, RAW264.7, 48 h; read-out: RAW-264.7 48 h IC50

SMILES	IC50 [1] [µM]	IC50 at 120 h [2] [µM]	SI (LLC-MK2) = (IC50 LLC-MK2)/(IC50 T. cruzi) [3]	IC50 at 120 h ([2]; LLC-MK2 cells) [µM]	cure rate (Chagas disease)	SI (HEK-293) = (IC50 HEK-293)/(IC50 T. brucei brucei) [4]	SI (RAW-264.7) = (IC50 RAW-264.7)/(IC50 T. brucei brucei) [4]	IC50 [4, 5] [µM]	IC50 (HEK-293 cells; [6]) [µM]	IC50 (RAW-264.7 cells; [7]) [µM]	IC50 [4, 8] [µM]	IC50 (HEK-293 cells; [9]) [µM]	IC50 (RAW-264.7 cells; [10]) [µM]	Activity against Amastigotes of T. cruzi (Tulahuen C2C4lacZ) IC50 [1]
O=[N+]([O-])c1ncc[nH]1 [Azomycin (3), 2-nitro-1H-imidazole, reference compound]	5.74 ± 1.89	> 500	>87.10											
O=C(Cn1ccnc1[N+](=O)[O-])NCc1ccccc1 [Benznidazole, benznidazole, reference compound]	1.5 ± 0.33		>133.33	> 200	less than 20%									
O=[N+]([O-])c1nccn1CCn1ccnc1[N+](=O)[O-] [Compound 4, 1,2-Bis(2-nitro-1H-imidazol-1-yl)ethane]	9.13 ± 0.93	> 200	>21.90			>5.83	>5.83	21.4 ± 1.15	> 125	> 125				
O=[N+]([O-])c1nccn1CCCn1ccnc1[N+](=O)[O-] [Compound 5, 1,3-Bis(2-nitro-1H-imidazol-1-yl)propane]	3.2 ± 0.58	> 200	>62.50					16.4 ± 2.65	> 125	> 125				
O=[N+]([O-])c1nccn1CCCCn1ccnc1[N+](=O)[O-] [Compound 6, 1,4-Bis(2-nitro-1H-imidazol-1-yl)butane]	2.66 ± 0.78	> 200	>75.18			>5.02	>5.02				24.9 ± 7.89	> 125	> 125	
O=[N+]([O-])c1nccn1CCCCCn1ccnc1[N+](=O)[O-] [Compound 7, 1,5-Bis(2-nitro-1H-imidazol-1-yl)pentane]	1.38 ± 0.24	> 200	>144.9			>12.42	>12.42				10.1 ± 2.47	> 125	> 125	
O=[N+]([O-])c1nccn1CCCCCCn1ccnc1[N+](=O)[O-] [Compound 8, 1,6-Bis(2-nitro-1H-imidazol-1-yl)hexane]	0.59 ± 0.01	> 200	>338.98			16.27	>23.27				5.37 ± 3.15	87.4 ± 1.2	> 125	submicromolar range
O=[N+]([O-])c1nccn1CCCCCCCCn1ccnc1[N+](=O)[O-] [Compound 9, 1,8-Bis(2-nitro-1H-imidazol-1-yl)octane]	1.19 ± 0.31	> 100	>84.03			2.79	8.98				7.98 ± 3.12	22.3 ± 1.08	71.7 ± 3.67	
O=[N+]([O-])c1nccn1CCCCCCCCCCn1ccnc1[N+](=O)[O-] [Compound 10, 1,10-Bis(2-nitro-1H-imidazol-1-yl)decane]	0.48 ± 0.11	> 100	>208.33			1.67	4.67				21 ± 1.9	35.1 ± 5.31	98.4 ± 9.39	submicromolar range
O=[N+]([O-])c1nccn1CCCCCCCCCCCCn1ccnc1[N+](=O)[O-] [Compound 11, 1,12-Bis(2-nitro-1H-imidazol-1-yl)dodecane]	0.61 ± 0.13	52.4 ± 4.13	85.88			57.01	>69.83				1.79 ± 0.63	102 ± 8.54	> 125	submicromolar range
CSc1ccc(OCc2ncc([N+](=O)[O-])n2C)cc1 [Fexinidazole, fexinidazole, reference compound]											1.2 ± 0.51			
CC1CS(=O)(=O)CCN1/N=C/c1ccc([N+](=O)[O-])o1 (centres unmarked) [nifurtimox]					less than 20%									
